# Source: article PMC10714399, “Open Source Antibiotics: Simple Diarylimidazoles Are Potent against Methicillin-Resistant Staphylococcus aureus” (ACS Infectious Diseases, 2023)
# Target: T1, kinases of HEK293 cell lysate (TGFBR1) (Homo sapiens, UniProt P36897)
# T1 construct: endogenous in cells; host or cells: HEK293 cell lysate
# Assay: MIB-MS kinase competition assay in HEK293 cell lysate
# Type: binding
# Settings: 1 μM
# Protocol: To understand the mammalian toxicity of these diarylimidazole derivatives and to aid in future compound design, we experimentally investigated the potential series’ mechanism of action (MoA). […] This affinity composition assay has proven to be a useful approach to validate kinase inhibitor selectivity. […] Whether the inhibition of TGF-β1 contributes to the cytotoxicity observed remains to be determined.
# Following a brief incubation with these compounds, lysates were passed over MIBs (see Supporting Information - Biology), and the captured kinases were identified and quantified by mass spectrometry. Displaced kinases are shown to the left of the center line at the designated doses.
# Differential abundance (increase or decrease in MIB binding) was determined for kinases identified. The mass spectrometry proteomics data have been deposited to the ProteomeXchange Consortium via the PRIDE[43] partner repository with the dataset identifier PXD040208.
# EphB2 TRKB FGFR1 FGFR4 EphB2 TRKB FGFR1 FGFR4
# EphA5 EphB1 ROR2 FLT1 FmS/CSFR EphA5 EphB1 ROR2 FLT1 FmS/CSFR
# MUSK ROR1Ret Kit MUSK ROR1Ret Kit
# EphB3 DDR2 Mer EphB3 DDR2 Mer
# EphA3EphA4 DDR1 Axl Tyro/SkyFLT4 PDGFRα EphA3EphA4 DDR1 AxlTyro/SkyFLT4 PDGFRα
# IRR FLT3PDGFRβ IRR FLT3PDGFRβ
# EphA6 IGF1R HER2 EphA6 IGF1R HER2
# Yes InSR Met EGFR Yes InSR Met EGFR
# Branch Color Src EphB4 Ron MLK3 Branch Color Src EphB4 Ron MLK3
# Lyn EphA7 ALK TIE2 Lyn EphA7 ALK TIE2 […]
# T1 sequence (P36897 34-503): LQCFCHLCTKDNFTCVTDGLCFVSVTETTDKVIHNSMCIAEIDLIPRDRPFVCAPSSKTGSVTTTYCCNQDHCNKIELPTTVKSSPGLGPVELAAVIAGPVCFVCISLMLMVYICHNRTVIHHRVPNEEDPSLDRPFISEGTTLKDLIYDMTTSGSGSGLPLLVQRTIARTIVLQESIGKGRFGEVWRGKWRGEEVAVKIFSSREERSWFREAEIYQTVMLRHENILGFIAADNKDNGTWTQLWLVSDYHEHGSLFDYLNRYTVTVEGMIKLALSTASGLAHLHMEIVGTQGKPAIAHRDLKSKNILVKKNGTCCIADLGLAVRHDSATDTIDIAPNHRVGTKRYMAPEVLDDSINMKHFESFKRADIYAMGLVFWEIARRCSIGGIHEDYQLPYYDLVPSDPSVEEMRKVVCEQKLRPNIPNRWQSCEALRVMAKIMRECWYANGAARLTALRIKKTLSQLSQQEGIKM
smiles,measurement,value
c1ccc(-c2nc3n(c2-c2ccc4sccc4c2)CCC3)nc1 [compound 822],competition of kinases (TGFBR1) off MIBs,selectively competed off MIBs
